These results are taken from patent US8367401B2, “Replication competent hepatitis C virus and methods of use” (Board of Regents, The University of Texas System, priority 1999, dated 2013).

Series [1] deals with Ntat2ANeo(RG) replicon (HCV-N) in En5-3 cells. In words: Interferon suppression of SEAP secretion, Ntat2ANeo(RG) replicon cell line. In kind it is cell-based, hepatitis C virus. On the procedure: (§1) Alkaline phosphatase assay. […] The luminescent signal was read using a TD-20/20 Luminometer (Turner Designs, Inc.). In most time course experiments, the culture medium was replaced every 24 hrs. Thus, the SEAP activity measured in these fluids reflected the daily production of SEAP by the cells.
(§2) Interferon treatment of cell cultures. Selected replicon-bearing cell lines were seeded into 12 well plates. The media was replaced 24 hrs later with fresh, G418 free media containing various concentrations of recombinant interferon-α2B ranging from 0 to 100 units/ml. The medium was subsequently completely removed every 24 hrs, the cells washed, and refed with fresh interferon-containing media. SEAP activity was measured in the media removed from the cells as described above.
(§3) Interferon suppression of HCV RNA replication. […] Recently seeded cell cultures were fed with media containing various concentrations of recombinant interferon-α2B ranging from 0 to 100 units/ml. The medium was subsequently removed completely at 24 hr intervals, and the cells were washed thoroughly and refed with fresh interferon-containing media. […] The decline in intracellular RNA preceded the decreases in SEAP secretion by approximately 24 hrs, most likely reflecting the kinetic delay in tat signaling of SEAP secretion.
In general terms: Replicon systems follow genome replication, usually without infectious particles.

The test system of another series is Et2AN cell line. Briefly: SEAP secretion by Et2AN control cell line (tat2ANeo under EMCV IRES, no replicon). It is filed as cell-based.
Description: as §1
This permits serial measurements of the kinetics of RNA amplification in single cultures of cells (FIG. 21). One potential drawback of this system is that suppression of SEAP activity by candidate antiviral compounds could result from inhibition of the activity of either the 2A protease or tat, or even (as with other published dicistronic HCV replicons) the EMCV IRES. To address this issue, we established a stably transformed cell line that constitutively expresses the tat2ANeo polyprotein under the translational control of the EMCV IRES. This cell line (Et2AN) was established by transfection of pEt2AN DNA (FIG. 16) into En5-3 cells, followed by selection with G418.

For series [2], the system named is Btat2ANeo(SI) replicon (Con1 HCV) in En5-3 cells. In words: Interferon suppression of SEAP secretion, Btat2ANeo(SI) replicon cell line. In kind it is cell-based, hepatitis C virus. The protocol: as §1, §2, §3
For a further series, the system named is En5-3 cells. Briefly: SEAP expression from En5-3 cells without replicon. The following applies: interferon treatment. In kind it is cell-based.
Description: FIG. 22. Suppression of HCV replicon amplification by interferon-α2b. (A) SEAP activity secreted from cells supporting replication of Btat2ANeo(SI) over successive 24 hr intervals following addition of interferon to the medium. (B) SEAP secretion from Ntat2ANeo(RG) cells. Interferon concentrations were: (*) 100 units/ml; (X) 10 units/ml; (▴) 1 unit/ml; (▪) no interferon. SEAP expression from En5-3 cells without interferon treatment was also shown (♦). SEAP expression from En5-3 cells was not affected by interferon treatment.
as §1

Setting [3] is: highest concentration of interferon tested, 100 units/ml.
The mark [4] stands for this setting: interferon 0 to 100 units/ml, media replaced at 24 hr intervals, stable G418 resistant cell clone.

Consider interferon-α2b, for which the cellular cytotoxicity result in series [1] (100 units/ml) and in series [2] (100 units/ml) was “absence of demonstrable cellular cytotoxicity” in each case. The “SEAP expression over time” value in series [1] (setting [3]) and in series [2] (setting [3]) was “SEAP expression declined over time” each time. The SEAP secretion entry in series [1] (setting [4]) and in series [2] (setting [4]) was “dose-dependent inhibition of SEAP secretion” in each case. In the series with Et2AN cell line (comparable concentrations of interferon), the “suppression of the secretion of SEAP” value was “no suppression”. The nonspecific toxicity entry in the series with Et2AN cell line (concentrations of interferon tested) is given as “absence of nonspecific toxicity”. Besides, the SEAP expression entry with En5-3 cells is reported as “not affected”.
